Test results published in the NIST ThermoML archive (doi:10.1021/je500332k).
Numbers after ± are expanded uncertainties.

How the values were obtained:
[1] = 298.2 K; 101.33 kPa; Liquid; Vibrating tube method
[2] = Boiling temperature at pressure P; details: 101.33 kPa; Liquid; Distillation
[3] = refractive index (Na D-line) (dimensionless); details: 298.2 K; 101.33 kPa; Liquid; Standard Abbe refractometry

| SMILES | mass density [1] [kg/m3] | Boiling temperature at pressure P [2] [°C] | refractive index [3] |
| --- | --- | --- | --- |
| CC(=O)O [acetic acid] | 1049.42 ± 0.26 | 118.1 ± 0.3 | 1.3713 ± 0.0003 |
| COC(=O)OC [dimethyl carbonate] | 1061.9 ± 0.38 | 90.08 ± 0.29 | 1.3685 ± 0.0004 |
| O [water] | – | 100.1 ± 0.3 | 1.3324 ± 0.0003 |
